Laboratory results reported in patent US20230072683A1, “PYRIDO-PYRIMIDIN DERIVATIVES AND PHARMACEUTICAL COMPOSITION, FOR USE IN PREVENTING OR TREATING PI3 KINASE RELATED DISEASES, COMPRISING SAME AS ACTIVE INGREDIENT” (BORYUNG PHARMACEUTICAL CO., LTD, priority 2019, published 2023).

Tests used:
[1] = target: PI3K-δ (PI3K(p1108/p857) (h)) (Homo sapiens, UniProt O00329); test: Evaluation of inhibitory activity against PI3K-δ (HTRF kinase assay); format: biochemical; conditions: for inhibition at 0.01 µM: compound concentration 0.01 μM, read-out: EXP_VALUE(% Inhibition) PI3K-δ 0.01 μM; for inhibition at 0.1 µM: compound concentration 0.1 μM, read-out: EXP_VALUE(% Inhibition) PI3K-δ 0.1 μM
PI3K-δ (PI3K(p1108/p857) (h)), sequence (O00329 whole entry): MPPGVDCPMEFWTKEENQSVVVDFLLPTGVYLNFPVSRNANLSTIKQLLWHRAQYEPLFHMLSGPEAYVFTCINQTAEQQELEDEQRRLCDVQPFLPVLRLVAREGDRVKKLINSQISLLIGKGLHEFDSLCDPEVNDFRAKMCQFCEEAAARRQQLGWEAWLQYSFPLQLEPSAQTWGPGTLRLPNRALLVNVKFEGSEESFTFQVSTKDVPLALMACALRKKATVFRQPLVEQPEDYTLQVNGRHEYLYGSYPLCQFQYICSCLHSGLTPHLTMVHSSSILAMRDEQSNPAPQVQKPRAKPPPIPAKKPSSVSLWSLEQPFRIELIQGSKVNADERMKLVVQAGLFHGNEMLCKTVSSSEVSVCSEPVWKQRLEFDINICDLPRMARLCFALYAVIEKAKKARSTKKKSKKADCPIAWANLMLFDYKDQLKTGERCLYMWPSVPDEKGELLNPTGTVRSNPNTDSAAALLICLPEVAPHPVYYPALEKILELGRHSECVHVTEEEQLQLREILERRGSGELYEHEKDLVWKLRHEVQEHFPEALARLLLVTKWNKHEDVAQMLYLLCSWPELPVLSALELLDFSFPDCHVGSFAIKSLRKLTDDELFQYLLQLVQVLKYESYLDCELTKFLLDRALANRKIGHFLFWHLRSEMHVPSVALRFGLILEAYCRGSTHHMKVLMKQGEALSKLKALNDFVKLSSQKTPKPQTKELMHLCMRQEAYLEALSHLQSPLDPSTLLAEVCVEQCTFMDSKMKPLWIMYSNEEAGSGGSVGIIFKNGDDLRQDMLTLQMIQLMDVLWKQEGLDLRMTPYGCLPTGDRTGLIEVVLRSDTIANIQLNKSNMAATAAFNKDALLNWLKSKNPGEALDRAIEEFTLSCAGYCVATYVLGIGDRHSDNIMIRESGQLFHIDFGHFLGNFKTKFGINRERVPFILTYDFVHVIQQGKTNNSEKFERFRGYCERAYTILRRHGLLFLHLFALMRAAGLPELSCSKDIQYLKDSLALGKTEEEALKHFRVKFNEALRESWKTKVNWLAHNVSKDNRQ
PI3K-δ (PI3K(p1108/p857) (h)), sequence (P27986 whole entry partner): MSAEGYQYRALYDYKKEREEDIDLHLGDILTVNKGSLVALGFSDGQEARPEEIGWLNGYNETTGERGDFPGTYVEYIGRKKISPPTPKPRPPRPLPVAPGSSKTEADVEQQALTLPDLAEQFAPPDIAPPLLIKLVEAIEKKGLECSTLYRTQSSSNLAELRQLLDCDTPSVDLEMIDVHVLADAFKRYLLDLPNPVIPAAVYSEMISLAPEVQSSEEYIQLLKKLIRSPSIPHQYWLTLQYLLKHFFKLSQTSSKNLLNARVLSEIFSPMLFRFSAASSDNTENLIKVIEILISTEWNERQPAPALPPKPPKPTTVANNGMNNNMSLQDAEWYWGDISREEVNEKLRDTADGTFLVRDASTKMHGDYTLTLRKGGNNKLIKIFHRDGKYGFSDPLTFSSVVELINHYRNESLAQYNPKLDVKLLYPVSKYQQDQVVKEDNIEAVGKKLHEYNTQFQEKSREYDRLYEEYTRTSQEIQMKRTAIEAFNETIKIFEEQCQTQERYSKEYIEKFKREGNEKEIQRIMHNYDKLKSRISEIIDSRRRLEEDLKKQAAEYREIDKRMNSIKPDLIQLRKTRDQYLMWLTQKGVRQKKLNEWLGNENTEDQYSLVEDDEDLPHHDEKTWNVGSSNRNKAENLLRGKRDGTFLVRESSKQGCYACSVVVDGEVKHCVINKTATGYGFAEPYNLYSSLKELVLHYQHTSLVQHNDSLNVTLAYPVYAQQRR
Protocol: <Experimental Example 1> Evaluation of Inhibitory Activity Properties Against PI3K-δ
The following experiments were performed to verify the inhibitory activity against PI3K-δ with regard to each of the compounds of Examples 1 to 441 according to the present invention.
PI3K(p1108/p857) (h) was incubated in assay buffer comprising 10 μM phosphatidylinositol-4,5-bisphosphate and Mg/ATP (at a concentration as required). The reaction was initiated by the addition of a Mg/ATP mixture, and after incubation for 30 minutes at room temperature, a stop solution comprising EDTA and phosphatidylinositol-3,4,5-triphosphate was added to stop the reaction and carry out biotinylation.
A detection buffer comprising Eu (europium)-labelled anti-GST monoclonal antibody, GST-tagged GRP1 PH domain and streptavidin-allophycocyanin was added. A plate was read in a time-resolved fluorescence mode and a homogeneous time-resolved fluorescence (HTRF) signal was determined according to HTRF=10000×(Em 665 nm/Em 620 nm).

[2] = target: DNA-PK(h) (Homo sapiens, UniProt P78527); test: Evaluation of inhibitory activity against DNA-PK (HTRF kinase assay, GST-cMyc-p53 substrate); format: biochemical; conditions: for inhibition at 0.01 µM: compound concentration 0.01 μM, read-out: EXP_VALUE(% Inhibition) DNA-PK(h) 0.01 μM; for inhibition at 0.1 µM: compound concentration 0.1 μM, read-out: EXP_VALUE(% Inhibition) DNA-PK(h) 0.1 μM
Protocol: <Experimental Example 2> Evaluation of Inhibitory Activity Properties Against DNA-PK
The following experiments were performed to verify the inhibitory activity against DNA-PK with regard to each of the compounds of Examples 1 to 441 according to the present invention.
DNA-PK(h) was subjected to an isothermal treatment in an assay buffer comprising […] GST-cMyc-p53 and Mg/ATP (at a concentration as required). The reaction was initiated by the addition of a Mg/ATP mixture, and after incubation for 30 minutes at room temperature, a stop solution comprising EDTA was added to stop the reaction. A detection buffer comprising d2-labelled anti-GST monoclonal antibody and Europium-labelled anti-phospho Ser15 antibody for phosphorylated p53 was added. A plate was read in a time-resolved fluorescence mode and a homogeneous time-resolved fluorescence (HTRF) signal was determined according to HTRF=10000×(Em 665 nm/Em 620 nm).

Row | Structure (SMILES) | inhibition at 0.01 µM [1] | inhibition at 0.01 µM [2] | inhibition at 0.1 µM [1] | inhibition at 0.1 µM [2]
1 | C[C@H](Nc1ncnc2[nH]ccc(=O)c12)c1c(Cl)c2cccc(-c3ccc(-n4cccc4)nc3)c2c(=O)n1-c1ccccc1 [Example 3, (S)-4-((1-(8-(6-(1H-pyrrol-1-yl)pyridin-3-yl)-4-chloro-1-oxo-2-phenyl-1,2-dihydroisoquinolin-3-yl)ethyl)amino)pyrido[2,3-d]pyrimidin-5(8H)-one] | 69% | 44% |  | 
2 | C[C@H](Nc1ncnc2[nH]ccc(=O)c12)c1c(Cl)c2cccc(-c3cc4ccccc4o3)c2c(=O)n1-c1ccccc1 [Example 6, (S)-4-((1-(8-(benzofuran-2-yl)-4-chloro-1-oxo-2-phenyl-1,2-dihydroisoquinolin-3-yl)ethyl)amino)pyrido[2,3-d]pyrimidin-5(8H)-one] | 74% | 25% | 95% | 74%
3 | C[C@H](Nc1ncnc2[nH]ccc(=O)c12)c1c(Cl)c2cccc(N3CCc4ccccc4C3)c2c(=O)n1-c1ccccc1 [Example 7, (S)-4′-chloro-3′-(1-((5-oxo-5,8-dihydropyrido[2,3-d]pyrimidin-4-yl)amino)ethyl)-2′-phenyl-3,4-dihydro-1H-(2,8′-biisoquinolin)-1′(2′H)-one] | 77% | 26% | 108% | 62%
4 | C[C@H](Nc1ncnc2[nH]ccc(=O)c12)c1c(Cl)c2cccc(N3CC4CC=CCC4C3)c2c(=O)n1-c1ccccc1 (stereo partly drawn) [Example 8, 4-(((1S)-1-(4-chloro-1-oxo-2-phenyl-8-(3a, 4,7,7a-tetrahydro-1H-isoindol-2 (3H)-yl)-1,2-dihydroisoquinolin-3-yl)ethyl)amino)pyrido[2,3-d]pyrimidin-5(8H)-one] | 36% | 12% | 76% | 28%
5 | C[C@H](Nc1ncnc2[nH]ccc(=O)c12)c1c(Cl)c2cccc(N3CCN(c4ccncc4)CC3)c2c(=O)n1-c1ccccc1 [Example 9, (S)-4-((1-(4-chloro-1-oxo-2-phenyl-8-(4-(pyridin-4-yl)piperazin-1-yl)-1,2-dihydroisoquinolin-3-yl)ethyl)amino)pyrido[2,3-d]pyrimidin-5(8H)-one] | 50% | 60% | 61% | 92%
6 | C[C@H](Nc1ncnc2[nH]ccc(=O)c12)c1c(Cl)c2cccc(N3CCC(N4CCCCC4)CC3)c2c(=O)n1-c1ccccc1 [Example 10, (S)-4-((1-(8-([1,4′-bipiperidin]-1′-yl)-4-chloro-1-oxo-2-phenyl-1,2-dihydroisoquinolin-3-yl)ethyl)amino)pyrido[2,3-d]pyrimidin-5(8H)-one] | 40% | 15% | 70% | 73%
7 | C[C@H](Nc1ncnc2[nH]ccc(=O)c12)c1c(Cl)c2cccc(N3CCN(C4CCN(C)CC4)CC3)c2c(=O)n1-c1ccccc1 [Example 11, (S)-4-((1-(4-chloro-8-(4-(1-methylpiperidin-4-yl)piperazin-1-yl)-1-oxo-2-phenyl-1,2-dihydroisoquinolin-3-yl)ethyl)amino)pyrido[2,3-d]pyrimidin-5(8H)-one] | 21% | 18% | 61% | 53%
8 | C[C@H](Nc1ncnc2[nH]ccc(=O)c12)c1cc2cccc(-c3cccnc3)c2c(=O)n1-c1ccccc1 [Example 12, (S)-4-((1-(1-oxo-2-phenyl-8-(pyridin-3-yl)-1,2-dihydroisoquinolin-3-yl)ethyl)amino)pyrido[2,3-d]pyrimidin-5(8H)-one] | 102% | 6% | 114% | 21%
9 | Cc1ccc(-c2cccc3cc([C@H](C)Nc4ncnc5[nH]ccc(=O)c45)n(-c4ccccc4)c(=O)c23)cn1 [Example 13, (S)-4-((1-(8-(6-methylpyridin-3-yl)-1-oxo-2-phenyl-1,2-dihydroisoquinolin-3-yl)ethyl)amino)pyrido[2,3-d]pyrimidin-5(8H)-one] | 35% | 3% | 101% | 18%
10 | C[C@H](Nc1ncnc2[nH]ccc(=O)c12)c1cc2cccc(-c3ccc(F)cc3)c2c(=O)n1-c1ccccc1 [Example 14, (S)-4-((1-(8-(4-fluorophenyl)-1-oxo-2-phenyl-1,2-dihydroisoquinolin-3-yl)ethyl)amino)pyrido[2,3-d]pyrimidin-5(8H)-one] | 105% | 8% | 107% | 27%
11 | C[C@H](Nc1ncnc2[nH]ccc(=O)c12)c1cc2cccc(-c3cnn(C)c3)c2c(=O)n1-c1ccccc1 [Example 15, (S)-4-((1-(8-(1-methyl-1H-pyrazol-4-yl)-1-oxo-2-phenyl-1,2-dihydroisoquinolin-3-yl)ethyl)amino)pyrido[2,3-d]pyrimidin-5(8H)-one] | 109% | 24% | 108% | 37%
12 | C[C@H](Nc1ncnc2[nH]ccc(=O)c12)c1c(Br)c2cccc(-c3ccc(N(C)C)cc3)c2c(=O)n1-c1ccccc1 [Example 16, (S)-4-((1-(4-bromo-8-(4-(dimethylamino)phenyl)-1-oxo-2-phenyl-1,2-dihydroisoquinolin-3-yl)ethyl)amino)pyrido[2,3-d]pyrimidin-5(8H)-one] | 51% | 7% | 88% | 53%

Now from value to compound:

Row | inhibition at 0.01 µM [1] | inhibition at 0.01 µM [2] | inhibition at 0.1 µM [1] | inhibition at 0.1 µM [2] | Structure (SMILES)
13 | 63% | 60% |  |  | CON=C(C)c1cccc2c(Cl)c([C@H](C)Nc3ncnc4[nH]ccc(=O)c34)n(-c3ccccc3)c(=O)c12 (stereo in doubt) [Example 270, (S,Z)-4-((1-(4-chloro-8-(1-(methoxyimino)ethyl)-1-oxo-2-phenyl-1,2-dihydroisoquinolin-3-yl)ethyl)amino)pyrido[2,3-d]pyrimidin-5(8H)-one]
14 | 105% | 52% | 104% | 91% | C[C@H](Nc1ncnc2[nH]ccc(=O)c12)c1c(Br)c2cccc(Cl)c2c(=O)n1-c1ccccc1 [Example 1, (S)-4-((1-(4-bromo-8-chloro-1-oxo-2-phenyl-1,2-dihydroisoquinolin-3-yl)ethyl)amino)pyrido[2,3-d]pyrimidin-5(8H)-one]
15 | 42% | 56% | 94% | 89% | C[C@H](Nc1ncnc2[nH]ccc(=O)c12)c1c(Cl)c2cccc(B3OC(C)(C)C(C)(C)O3)c2c(=O)n1-c1ccccc1 [Example 2, (S)-4-((1-(4-chloro-1-oxo-2-phenyl-8-(4,4,5,5-tetramethyl-1,3,2-dioxaborolan-2-yl)-1,2-dihydroisoquinolin-3-yl)ethyl)amino)pyrido[2,3-d]pyrimidin-5(8H)-one]
16 | 101% | 53% | 109% | 99% | C[C@H](Nc1ncnc2[nH]ccc(=O)c12)c1c(Cl)c2cccc(-c3cccnc3)c2c(=O)n1-c1ccccc1 [Example 4, (S)-4-((1-(4-chloro-1-oxo-2-phenyl-8-(pyridin-3-yl)-1,2-dihydroisoquinolin-3-yl)ethyl)amino)pyrido[2,3-d]pyrimidin-5(8H)-one]
17 | 106% | 69% | 115% | 100% | C[C@H](Nc1ncnc2[nH]ccc(=O)c12)c1c(Cl)c2cccc(-c3cnn(C)c3)c2c(=O)n1-c1ccccc1 [Example 5, (S)-4-((1-(4-chloro-8-(1-methyl-1H-pyrazol-4-yl)-1-oxo-2-phenyl-1,2-dihydroisoquinolin-3-yl)ethyl)amino)pyrido[2,3-d]pyrimidin-5(8H)-one]
18 |  | 48% |  | 73% | C[C@H](Nc1ncnc2[nH]ccc(=O)c12)c1c(Cl)c2cccc(-c3ccc(C(F)(F)F)cc3)c2c(=O)n1-c1ccccc1 [Example 68, (S)-4-((1-(4-chloro-1-oxo-2-phenyl-8-(4-(trifluoromethyl)phenyl)-1,2-dihydroisoquinolin-3-yl)ethyl)amino)pyrido[2,3-d]pyrimidin-5(8H)-one]
